Laboratory results from the supplement of paper PMC6045584.
± gives the standard deviation of the averaged measurements.

Key:
AFATINIB = compound: CN(C)C/C=C/C(=O)Nc1cc2c(Nc3ccc(F)c(Cl)c3)ncnc2cc1O[C@H]1CCOC1 [AFATINIB]; experiment: surviving fraction relative to DMSO-only wells; higher = less growth inhibition; details: exposure time: 5 days
In short: (§1)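 Each tumour cell line was screened three times, and only lines with replicate Pearson r >0.7 and median Z' >0.3 were kept. Cells in log phase were seeded at 250–500 per well in 384-well plates, left 24 hours, then exposed continuously for five days to inhibitors at 0.5, 1, 5, 10, 50, 100, 500 and 1000 nM. Viability was read as CellTiter-Glo luminescence, with surviving fraction normalised to the median of DMSO-only wells.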

SNX-5422 = compound: CC1(C)CC(=O)c2c(C(F)(F)F)nn(-c3ccc(C(N)=O)c(N[C@H]4CC[C@H](OC(=O)CN)CC4)c3)c2C1 [SNX-5422]; experiment: as above; details: exposure time: 5 days
In short: as §1

BI-2536 = compound: CC[C@@H]1C(=O)N(C)c2cnc(Nc3ccc(C(=O)NC4CCN(C)CC4)cc3OC)nc2N1C1CCCC1 [BI-2536]; experiment: area under dose-response curve of surviving fraction (unscaled, Aref=0) (surviving fraction x log10(nM)); higher = more resistant; details: exposure time: 5 days; dose range 0.5-1000 nM
In short: (§2)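 Tumour cell lines in 384-well plates were exposed for five days to eight inhibitor concentrations from 0.5 to 1000 nM. Viability was read by CellTiter-Glo luminescence, normalised to DMSO-only wells, in three screens per line. Dose-response survival curves were fitted to surviving fractions by 3-parameter logistic regression in the drc R package. Area under the curve is the unscaled activity area (Aref = 0) over log10 dose.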

CANERTINIB = compound: C=CC(=O)Nc1cc2c(Nc3ccc(F)c(Cl)c3)ncnc2cc1OCCCN1CCOCC1 [CANERTINIB]; experiment: as above; details: exposure time: 5 days; dose range 0.5-1000 nM
In short: as §2

[1] = compound: Cn1cc(C2=Nc3cc(NC(=O)C(N)C4CCCCC4)cc4c3C2=CNNC4=O)cn1; experiment: as above; details: exposure time: 5 days; dose range 0.5-1000 nM
In short: as §2

SAPACITABINE = compound: CCCCCCCCCCCCCCCC(=O)Nc1ccn([C@@H]2O[C@H](CO)[C@@H](O)[C@@H]2C#N)c(=O)n1 [SAPACITABINE]; experiment: as above; details: exposure time: 5 days; dose range 0.5-1000 nM
In short: as §2

Test System	surviving fraction (AFATINIB; 0.5 nM)	surviving fraction (AFATINIB; 1 nM)	surviving fraction (AFATINIB; 5 nM)	surviving fraction (AFATINIB; 10 nM)	surviving fraction (AFATINIB; 50 nM)	surviving fraction (AFATINIB; 100 nM)	surviving fraction (AFATINIB; 500 nM)	surviving fraction (AFATINIB; 1000 nM)	surviving fraction (SNX-5422; 0.5 nM)	surviving fraction (SNX-5422; 1 nM)	surviving fraction (SNX-5422; 5 nM)	surviving fraction (SNX-5422; 10 nM)	surviving fraction (SNX-5422; 50 nM)	surviving fraction (SNX-5422; 100 nM)	surviving fraction (SNX-5422; 500 nM)	surviving fraction (SNX-5422; 1000 nM)	area under dose-response curve (BI-2536)	area under dose-response curve (CANERTINIB)	area under dose-response curve [1]	area under dose-response curve (SAPACITABINE)
SUM44 BREAST	1.04 ± 0.053	1 ± 0.054	1.01 ± 0.023	0.995 ± 0.077	1.07 ± 0.027	1.03 ± 0.022	0.859 ± 0.034	0.448 ± 0.047	1.02 ± 0.035	0.987 ± 0.043	0.974 ± 0.013	0.867 ± 0.024	0.604 ± 0.015	0.589 ± 0.04	0.495 ± 0.041	0.471 ± 0.048	0.689	2.78	1.84	2.51
HMT3552 BREAST	0.823	0.878	0.885	0.727	0.904	0.881	0.593	0.278	1.04	1.05	1.12	1.08	0.171	0.106	0.082	0.079	–	2.58	–	2.99
NY BONE	0.991 ± 0.051	0.983 ± 0.013	1.02 ± 0.062	1.038 ± 0.008	1.03 ± 0.053	0.996 ± 0.017	0.683 ± 0.029	0.392 ± 0.017	0.9907 ± 0.0074	1.01 ± 0.04	1.05 ± 0.045	1.03 ± 0.047	0.086 ± 0.0061	0.128 ± 0.012	0.0563 ± 0.0047	0.054 ± 0.0078	0.972	3.13	2.01	1.91
SG27 HEADNECK	1 ± 0.09	0.981 ± 0.035	1.04 ± 0.041	1 ± 0.14	0.883 ± 0.012	0.966 ± 0.13	0.865 ± 0.093	0.831 ± 0.068	1.04 ± 0.13	1.06 ± 0.13	1 ± 0.14	1.06 ± 0.079	1.68 ± 0.3	1.26 ± 0.088	0.071 ± 0.017	0.0733 ± 0.046	2.97	3.27	3.1	–
A549 LUNG	1.02 ± 0.068	1.02 ± 0.053	0.987 ± 0.05	0.965 ± 0.056	1.03 ± 0.025	1.03 ± 0.019	1.04 ± 0.05	1.03 ± 0.034	1 ± 0.046	1.01 ± 0.053	1.01 ± 0.043	0.99 ± 0.045	0.895 ± 0.057	0.349 ± 0.046	0.0613 ± 0.0031	0.058 ± 0.0095	1.16	3.08	–	2.57
143B BONE	1.0165 ± 0.00071	1.05 ± 0.011	1.0335 ± 0.00071	1.02 ± 0.014	1.01 ± 0.023	1.02 ± 0.02	1 ± 0.028	0.871 ± 0.11	1 ± 0.056	0.985 ± 0.0099	1.02 ± 0.037	0.996 ± 0.0057	0.365 ± 0.016	0.149 ± 0.0028	0.087 ± 0.0071	0.091 ± 0.011	0.815	–	2.8	–
SG28 HEADNECK	0.907 ± 0.056	0.828 ± 0.089	0.669 ± 0.083	0.523 ± 0.056	0.441 ± 0.052	0.452 ± 0.057	0.342 ± 0.029	0.259 ± 0.035	1.05 ± 0.11	1.12 ± 0.019	1 ± 0.076	1 ± 0.071	0.598 ± 0.042	0.299 ± 0.023	0.117 ± 0.019	0.125 ± 0.015	2.69	–	2.64	–
H23 LUNG	0.887 ± 0.035	0.817 ± 0.048	0.507 ± 0.024	0.42 ± 0.015	0.387 ± 0.018	0.368 ± 0.029	0.355 ± 0.021	0.288 ± 0.002	1.01 ± 0.051	1.04 ± 0.023	1.06 ± 0.057	1.04 ± 0.052	0.43 ± 0.0053	0.268 ± 0.013	0.037 ± 0.0027	0.0373 ± 0.0035	1.66	1.77	–	2.6
CME SYNOVIAL	1.34 ± 0.1	1.37 ± 0.18	1.33 ± 0.13	1.28 ± 0.17	1.44 ± 0.19	1.32 ± 0.12	1.26 ± 0.062	0.733 ± 0.066	1.05 ± 0.06	1.21 ± 0.062	1.23 ± 0.074	1.35 ± 0.077	1.01 ± 0.18	0.276 ± 0.0067	0.287 ± 0.011	0.365 ± 0.034	1.64	3.18	–	1.45
ASKA SYNOVIAL	1.13 ± 0.029	1.09 ± 0.035	1.15 ± 0.083	1.1 ± 0.11	1.15 ± 0.029	1.14 ± 0.028	0.78 ± 0.023	0.404 ± 0.023	0.957 ± 0.041	0.967 ± 0.015	0.963 ± 0.035	0.883 ± 0.062	0.461 ± 0.05	0.233 ± 0.01	0.231 ± 0.0067	0.293 ± 0.0035	1.04	–	2.3	2.18
SJSA1 BONE	1.05 ± 0.014	0.9563 ± 0.0055	1.11 ± 0.017	1.04 ± 0.05	1.15 ± 0.063	1.07 ± 0.023	0.995 ± 0.041	0.613 ± 0.033	1.06 ± 0.041	1.02 ± 0.051	1.12 ± 0.088	1.14 ± 0.034	0.484 ± 0.03	0.177 ± 0.0095	0.0583 ± 0.0035	0.0523 ± 0.0015	1.58	–	3.02	4.77
CAL72 BONE	1.09 ± 0.021	1.02 ± 0.061	1.07 ± 0.018	1.06 ± 0.042	1.11 ± 0.011	1.1 ± 0.036	0.984 ± 0.031	0.893 ± 0.053	1.033 ± 0.0045	1.06 ± 0.022	1.077 ± 0.01	1.08 ± 0.046	0.208 ± 0.027	0.294 ± 0.038	0.0867 ± 0.014	0.0977 ± 0.0057	0.831	–	2.58	2.07
HS57T BREAST	1.05 ± 0.053	1.03 ± 0.056	1.13 ± 0.023	1.04 ± 0.051	1.11 ± 0.077	1.09 ± 0.076	0.787 ± 0.024	0.423 ± 0.057	1.1 ± 0.014	1.09 ± 0.046	1.15 ± 0.034	1.13 ± 0.034	0.215 ± 0.011	0.22 ± 0.016	0.127 ± 0.0093	0.126 ± 0.0052	–	–	–	–
C33A CERVIX	0.907 ± 0.059	1.02 ± 0.12	0.909 ± 0.046	0.939 ± 0.085	0.507 ± 0.0065	0.417 ± 0.0072	0.337 ± 0.038	0.23 ± 0.0027	1.03 ± 0.086	0.977 ± 0.073	1.03 ± 0.048	1.01 ± 0.069	0.316 ± 0.025	0.208 ± 0.086	0.056 ± 0.022	0.0593 ± 0.025	0.996	–	2.75	2.35
